# Structures can show the parent of a compound that is named as a salt.
# How the values were obtained:
# [1] = Particle size determination by laser diffraction (MALVERN Mastersizer 2000); type: physicochemical; conditions: for <150 μm (fraction of particles by volume smaller than specified diameter) / Mean particle size / <63 μm (fraction of particles by volume smaller than specified diameter): hydrochloride dihydrate
# Procedure: Particle Size Determination by Laser Diffraction
# The particle size of the obtained ondansetron hydrochloride dihydrate particles was determined as set forth above (See Methodology and Protocols). The mean particle size and particle size distribution of the particles (fraction of particles by volume smaller than specified diameter) are presented in the following table.
# [2] = particles from the '578 patent process (cooling isopropanol/water solution); cited from earlier work
# [3] = Drying: 40° C., eight (8) hours, 25° C., two (2) days
# [4] = Drying: Ambient conditions, six (6) hours
# [5] = Drying: None (i.e., wet particles after filtration)
Structure (SMILES),<250 μm (fraction of particles by volume smaller than specified diameter) ([1]; dried particles) [%],<150 μm (fraction of particles by volume smaller than specified diameter) ([1]; dried particles) [%],Mean particle size ([1]; dried particles) [μm],<63 μm (fraction of particles by volume smaller than specified diameter) ([1]; dried particles) [%],other results
"Cc1nccn1CC1CCc2c(c3ccccc3n2C)C1=O (single isomer, unassigned) [Example 1, ondansetron hydrochloride dihydrate]",100,90,96,,<60 μm (fraction of particles by volume smaller than specified diameter) ([1]; dried particles): 19%
"Cc1nccn1CC1CCc2c(c3ccccc3n2C)C1=O (single isomer, unassigned) [Example 2, ondansetron hydrochloride dihydrate]",100,90,81,31,
"Cc1nccn1CC1CCc2c(c3ccccc3n2C)C1=O (single isomer, unassigned) [Example 3, ondansetron hydrochloride dihydrate]",100,85,81,34,
"Cc1nccn1CC1CCc2c(c3ccccc3n2C)C1=O (stereo not shown) [Example 6, ondansetron hydrochloride dihydrate]",,,,,"<60 μm [1, 3]: 15%; <350 μm [1, 3]: 100%; <60 μm ([1]; Drying: 40° C., four (4) hours): 28%; <280 μm ([1]; Drying: 40° C., four (4) hours): 100%; <60 μm ([1]; Drying: 40° C., two (2) hours): 35%; <290 μm ([1]; Drying: 40° C., two (2) hours): 100%; <60 μm [1, 4]: 28%; <280 μm [1, 4]: 100%; <60 μm [1, 5]: 31%; <280 μm [1, 5]: 100%"
Cc1nccn1CC1CCc2c(c3ccccc3n2C)C1=O (stereo not shown) [ondansetron hydrochloride dihydrate],,,,,Fraction of particles smaller than 250 μm [2]: less than 60%

# Continued, in another order:
<250 μm (fraction of particles by volume smaller than specified diameter) ([1]; dried particles) [%],<150 μm (fraction of particles by volume smaller than specified diameter) ([1]; dried particles) [%],Mean particle size ([1]; dried particles) [μm],<63 μm (fraction of particles by volume smaller than specified diameter) ([1]; dried particles) [%],Structure (SMILES),other results
100,85,81,12,"Cc1nccn1CC1CCc2c(c3ccccc3n2C)C1=O (single isomer, unassigned) [Example 4, ondansetron hydrochloride dihydrate]",
100,85,89,26,"Cc1nccn1CC1CCc2c(c3ccccc3n2C)C1=O (single isomer, unassigned) [Example 5, ondansetron hydrochloride dihydrate]",

# — patent US7288660B2, “Process for preparing ondansetron hydrochloride dihydrate having a defined particle size” (Taro Pharmaceutical Industries Limited, priority 2004, dated 2007)
